# In ChEMBL document CHEMBL3832065, “DailyMed|setid=d976599a-0ee0-4fa4-afe6-bdfbca570afe | OLANZAPINE - olanzapine tablet, film coated|Rebel Distributors Corp”:
# Key:
# [1] = (§1) Evaluation of pharmacokinetic parameters for Olanzapine after single oral dose of Olanzapine tablet.; assay type: ADME, organism-based; settings: human, in vivo, regimen Single dose
# Homo sapiens = experiment: as §1; assay type: ADME, organism-based; settings: in vivo, po, dosed compound id 18, dosed compound name OLANZAPINE, regimen Single dose, tissue Plasma
# [2] = dosed compound id 18, dosed compound name OLANZAPINE, tissue Plasma
smiles,measurement,setting,value
Cc1cc2c(s1)Nc1ccccc1N=C2N1CCN(C)CC1 [OLANZAPINE],Tmax,[1]; [2],6 h
same,half-life,[1]; [2],30 h
same,CL/F,"[1]; dosed compound id 18, dosed compound name OLANZAPINE, tissue Plasma, read-out: CL(app) (converted)",417 mL/min
same,dose excreted,"[1]; dosed compound id 180, dosed compound name C-14 OLANZAPINE, tissue Urine, read-out: Excretion",7%
same,Vd,Homo sapiens,1000 L
